From patent US8952024B2, “Herbicidal pyrimidone derivatives” (E I du Pont de Nemours and Company, priority 2009, dated 2015)

Experiments:
Assay type in all cases: in vivo
[1] = system: deadnettle (henbit deadnettle, Lamium amplexicaule); experiment: Test B pre-/postemergence plant response; conditions: Postemergence
How it was run: (§1)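 Test compounds, formulated in a non-phytotoxic solvent mixture with surfactant, are applied to the soil surface (loam and sand blend) right after seeding, or sprayed over plants at the 1- to 4-leaf stage grown in peat moss/vermiculite medium. After 13 to 15 days under glasshouse conditions, each species is scored visually from 0 (no effect) to 100 (complete control) against controls.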

[2] = system: Russian thistle (Salsola kali); experiment: Test B pre-/postemergence plant response; conditions: Preemergence; for Russian Thistle plant response rating: 250 g ai/ha, 0 to 100 scale
How it was run: as §1

[3] = system: buckwheat (wild buckwheat, Polygonum convolvulus); experiment: Test C plant response; conditions: Postemergence, scale 0 to 100
From the text: (§2) Seeds of plant species selected from bluegrass (annual bluegrass, Poa annua), blackgrass (Alopecurus myosuroides), canarygrass (Phalaris minor), chickweed (common chickweed, Stellaria media), galium (catchweed bedstraw, Galium aparine), bromegrass (downy bromegrass, Bromus tectorum), field poppy (Papaver rhoeas), field violet (Viola arvensis), green foxtail (Setaria viridis), deadnettle (henbit deadnettle, Lamium amplexicaule), Italian ryegrass (Lolium multiflorum), kochia (Kochia scoparia), lambsquarters (Chenopodium album), oilseed rape (Brassica napus), pigweed (Amaranthus retroflexus), Russian thistle (Salsola iberica), spring barley (Hordeum vulgare), spring wheat (Triticum aestivum), buckwheat (wild buckwheat, Polygonum convolvulus), wild mustard (Sinapis arvensis), wild oat (Avena fatua), wild radish (Raphanus raphanistrum), windgrass (Apera spica-venti), winter barley (Hordeum vulgare), and winter wheat (Triticum aestivum) were planted and treated postemergence with test chemicals formulated in a non-phytotoxic solvent mixture which included a surfactant. Plants ranged in height from 2 to 18 cm (1- to 4-leaf stage).
(§3) Treated plants and controls were maintained in a controlled growth environment for 14 days after which time all test plants were visually evaluated and compared to controls. Plant response ratings, summarized in Table C, are based on a scale of 0 to 100 where 0 is no effect and 100 is complete control. A dash (-) response means no test result.

[4] = system: windgrass (Apera spica-venti); experiment: Test C plant response; conditions: Postemergence, scale 0 to 100
From the text: as §2, §3

[5] = system: chickweed (common chickweed, Stellaria media); experiment: Test C plant response; conditions: Postemergence, scale 0 to 100
From the text: as §2, §3

[6] = system: field poppy (Papaver rhoeas); experiment: Test C plant response; conditions: Postemergence, scale 0 to 100
From the text: as §2, §3

[7] = system: winter barley (Hordeum vulgare); experiment: Test C plant response; conditions: Postemergence, scale 0 to 100
From the text: as §2, §3

[8] = system: nutsedge (purple nutsedge, Cyperus rotundus); experiment: Test D pre-/postemergence plant response
How it was run: (§4)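 Visual 0–100 scoring (100 = complete control) versus untreated controls after 14–21 greenhouse days. Compounds, formulated in surfactant-containing non-phytotoxic solvent, were applied preemergence to seeded loam/sand and postemergence to 2–18 cm plants (1–4 leaves).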

[9] = system: quackgrass (Elytrigia repens); experiment: Test D pre-/postemergence plant response
How it was run: as §4

[10] = system: chickweed (common chickweed, Stellaria media); experiment: Test D pre-/postemergence plant response; conditions: Postemergence
How it was run: as §4

[11] = 31 g ai/ha, 0 to 100 scale (0 no effect, 100 complete control)
[12] = 62 g ai/ha, scale 0 to 100 (0 no effect, 100 complete control)
[13] = 125 g ai/ha, scale 0 to 100 (0 no effect, 100 complete control)
[14] = 250 g ai/ha, scale 0 to 100 (0 no effect, 100 complete control), 13 to 15 days
[15] = 31 g ai/ha, scale 0 to 100 (0 no effect, 100 complete control)
[16] = 125 g ai/ha, scale 0 to 100, 0 no effect, 100 complete control
[17] = Postemergence, 31 g ai/ha, scale 0 to 100
[18] = Postemergence, 62 g ai/ha, scale 0 to 100 (0 no effect, 100 complete control)
[19] = Postemergence, 125 g ai/ha, scale 0 to 100 (0 no effect, 100 complete control)
[20] = Postemergence, 250 g ai/ha, scale 0 to 100 (0 no effect, 100 complete control)
[21] = Preemergence, 125 g ai/ha, scale 0 to 100
[22] = Preemergence, 250 g ai/ha, scale 0 to 100

Cc1cc(-n2c(-c3cccc(F)c3)ncc(C(=O)C3=C(O)CCCC3=O)c2=O)ccc1F [Compound 191]
Plant response rating, Deadnettle [1, 11]: 90 | Plant response rating, Deadnettle [1, 12]: 100 | Plant response rating, Deadnettle [1, 13]: 100 | Plant response rating, Deadnettle [1, 14]: 100

O=C1CCCC(O)=C1C(=O)c1cnc(-c2cccc(Cl)c2)n(-c2ccc(Cl)cc2)c1=O [Compound 64]
Plant response rating, Russian Thistle [2, 12]: 0

COc1ccc(-n2c(-c3ccccc3)ncc(C(=O)C3=C(O)CCCC3=O)c2=O)cc1 [Compound 4, 5-[(2-hydroxy-6-oxo-cyclohexen-1-yl)carbonyl]-3-(4-methoxyphenyl)-2-phenyl-4(3H)-pyrimidinone]
Plant response rating: Buckwheat, Wild ([3]; 31 g ai/ha): 95 | Plant response rating: Buckwheat, Wild ([3]; 125 g ai/ha): 100 | Plant response rating: Windgrass ([4]; 31 g ai/ha): 35 | Plant response rating: Windgrass ([4]; 125 g ai/ha): 95 | Plant response rating: Chickweed ([5]; 31 g ai/ha): 98 | Plant response rating: Chickweed ([5]; 125 g ai/ha): 100 | Plant response rating: Field Poppy ([6]; 31 g ai/ha): 30 | Plant response rating: Field Poppy ([6]; 125 g ai/ha): 50 | Plant response rating: Barley, Winter ([7]; 31 g ai/ha): 5 | Plant response rating: Barley, Winter ([7]; 125 g ai/ha): 35

O=C1CCCC(O)=C1C(=O)c1cnc(-c2cccc(F)c2)n(C2CCCCC2)c1=O [Compound 187]
Plant response rating, Deadnettle [1, 11]: 80 | Plant response rating, Deadnettle [1, 14]: 100

CCCn1c(-c2cccc(Cl)c2)ncc(C(=O)C2=C(O)CCCC2=O)c1=O [Compound 190]
Plant response rating, Deadnettle [1, 11]: 65 | Plant response rating, Deadnettle [1, 13]: 100 | Plant response rating, Deadnettle [1, 14]: 100

Cc1cc(C)cc(-n2c(-c3ccccc3)ncc(C(=O)C3=C(O)CCCC3=O)c2=O)c1 [Compound 33]
Plant response rating: Buckwheat, Wild ([3]; 31 g ai/ha): 65 | Plant response rating: Buckwheat, Wild ([3]; 16 g ai/ha): 60 | Plant response rating: Buckwheat, Wild ([3]; 62 g ai/ha): 75 | Plant response rating: Buckwheat, Wild ([3]; 125 g ai/ha): 75 | Plant response rating: Windgrass ([4]; 31 g ai/ha): 20 | Plant response rating: Windgrass ([4]; 16 g ai/ha): 0 | Plant response rating: Windgrass ([4]; 62 g ai/ha): 25 | Plant response rating: Windgrass ([4]; 125 g ai/ha): 40 | Plant response rating: Chickweed ([5]; 31 g ai/ha): 90 | Plant response rating: Chickweed ([5]; 16 g ai/ha): 90 | Plant response rating: Chickweed ([5]; 62 g ai/ha): 98 | Plant response rating: Chickweed ([5]; 125 g ai/ha): 100 | Plant response rating: Field Poppy ([6]; 31 g ai/ha): 80 | Plant response rating: Field Poppy ([6]; 16 g ai/ha): 80 | Plant response rating: Field Poppy ([6]; 62 g ai/ha): 90 | Plant response rating: Field Poppy ([6]; 125 g ai/ha): 98 | Plant response rating: Barley, Winter ([7]; 31 g ai/ha): 0 | Plant response rating: Barley, Winter ([7]; 16 g ai/ha): 0 | Plant response rating: Barley, Winter ([7]; 62 g ai/ha): 0 | Plant response rating: Barley, Winter ([7]; 125 g ai/ha): 5

COCCn1c(-c2cc(F)cc(F)c2)ncc(C(=O)C2=C(O)C3CCC(C3)C2=O)c1=O (centres unmarked) [Compound 243, 2-(3,5-difluorophenyl)-5-[(2-hydroxy-4-oxobicyclo[3.2.1]oct-2-en-3-yl)carbonyl]-3-(2-methoxyethyl)-4(3H)-pyrimidinone]
Plant response rating, Russian Thistle [2, 15]: 100 | Plant response rating, Russian Thistle [2, 12]: 100 | Plant response rating, Russian Thistle [2, 16]: 100 | Russian Thistle plant response rating [2]: 100 | Plant response rating, Nutsedge, Purple [8, 17]: 20 | Plant response rating, Nutsedge, Purple [8, 18]: 25 | Plant response rating, Nutsedge, Purple [8, 19]: 25 | Plant response rating, Nutsedge, Purple [8, 20]: 50 | Plant response rating, Nutsedge, Purple ([8]; Preemergence, 62 g ai/ha, scale 0 to 100): 20 | Plant response rating, Nutsedge, Purple [8, 21]: 100 | Plant response rating, Nutsedge, Purple [8, 22]: 100 | Plant response rating, Quackgrass [9, 17]: 35 | Plant response rating, Quackgrass [9, 18]: 40 | Plant response rating, Quackgrass [9, 19]: 70 | Plant response rating, Quackgrass [9, 20]: 75 | Plant response rating, Quackgrass [9, 21]: 85 | Plant response rating, Quackgrass [9, 22]: 98 | Plant response rating, Chickweed ([10]; 31 g ai/ha, scale 0 to 100): 35 | Plant response rating, Chickweed [10, 12]: 50 | Plant response rating, Chickweed [10, 13]: 60 | Plant response rating, Chickweed ([10]; 250 g ai/ha, scale 0 to 100 (0 no effect, 100 complete control)): 70

Cc1ccc(Cl)cc1-n1c(-c2cccc(F)c2)ncc(C(=O)C2=C(O)CCCC2=O)c1=O [Compound 184]
Plant response rating, Deadnettle [1, 11]: 100 | Plant response rating, Deadnettle [1, 13]: 100 | Plant response rating, Deadnettle [1, 14]: 100

COCCn1c(-c2cc(F)cc(F)c2)ncc(C(=O)C2=C(O)CCCC2=O)c1=O [Compound 119]
Plant response rating, Russian Thistle [2, 15]: 100 | Plant response rating, Russian Thistle [2, 12]: 100 | Plant response rating, Russian Thistle [2, 16]: 100 | Russian Thistle plant response rating [2]: 100
